Measured values as given in ChEMBL document CHEMBL1201862, “PubChem BioAssay data set” (2004).
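Interpolation was linear, between the two tested concentrations surrounding the appropriate level; five concentrations were tested over 48 hours in 96-well plates. GI50 = concentration required for 50% inhibition of growth.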 Activity calls are given as the source filed them. Rule as the data show it: active = GI50 up to about 1.1 µM and inactive = higher.

Columns and labels:
Experiment in all cases: NCI anticancer screen, dose series, 48 h
MCF7 = system: MCF7
NCI/ADR-RES = system: NCI/ADR-RES
MDA-MB-231 = system: MDA-MB-231

SMILES	GI50 (MCF7)	GI50 (NCI/ADR-RES)	GI50 (MDA-MB-231)
CC1(C)C(=O)N(O)C(C)(C)N1N=O	> 10 µM (inactive)	> 10 µM (inactive)	> 10 µM (inactive)
COc1cc2c(/C=C3/C(=O)N(C)c4ccc(O)cc43)c(Cl)[nH]c2cc1C	0.502 µM (active)	0.703 µM (active)	0.738 µM (active)
Cc1nc2ccc(F)cc2c(Cl)c1CCCl	43.5 µM (inactive)	43 µM (inactive)	27 µM (inactive)
COC(=O)[C@@H](NC(=O)N(CCC#N)CCCN(C(=O)N[C@H](Cc1ccccc1)C(=O)OC)c1ccccc1)C(C)C	> 100 µM (inactive)	> 100 µM (inactive)	> 100 µM (inactive)
Cc1cccc2c(=O)c3c(O)cc(O)cc3n(C)c12	> 100 µM (inactive)	> 100 µM (inactive)	> 100 µM (inactive)
COC(=O)[C@@H]1[C@@H](c2cccc(Cl)c2)[C@H](C(=O)OC)C2(C[C@@]1(C)O)NCCS2 (stereo not given in full)	56.1 µM (inactive)	91.6 µM (inactive)	64.7 µM (inactive)
O=C1N/N=C\Nc2ccc(cc2)S(=O)(=O)c2ccc(cc2)/N=C\NNC1=O	> 100 µM (inactive)	> 100 µM (inactive)	> 100 µM (inactive)
COc1cccc(-c2cccc(SC)n2)n1	31.3 µM (inactive)	28.4 µM (inactive)	40.4 µM (inactive)
CCN(CC)CCn1c2cc3c(cc2c(=O)c2cccnc21)OCO3	3.89 µM (inactive)	4.93 µM (inactive)	4.44 µM (inactive)
CC(C)(C)OC(=O)N/N=C(/N)Cc1ccc(Cl)cc1	> 100 µM (inactive)	> 100 µM (inactive)	> 100 µM (inactive)
COc1cc([N+](=O)[O-])cc2c1NC(=O)C2(C)SC (stereo not given)	79.4 µM (inactive)	94.6 µM (inactive)	> 100 µM (inactive)
CC1(C)CN(CC(=O)O)CC(Cc2ccc(OCC(=O)O)cc2)N(CC(=O)O)CC(C)(C)SS1 (stereo not given)	> 100 µM (inactive)	> 100 µM (inactive)	> 100 µM (inactive)
O=[N+]([O-])c1ccc(C2NC(=S)NC3c4cc([N+](=O)[O-])ccc4CCCC23)cc1 (stereo not given)	41.8 µM (inactive)	> 100 µM (inactive)	> 100 µM (inactive)
C=C1[C@H](OCC(C)C)[C@@H](OCC(C)C)[C@@H](O)C(C)(C)/C=C/[C@H](C)C(=O)[C@@]2(O)C[C@H](C)[C@H](O)[C@@H]2[C@H]1OCC(C)C	> 7.5 µM (inactive)	> 7.5 µM (inactive)	3.25 µM (inactive)
COc1ccc2cc(CNCCCN3CCN(CCCNCc4ccc5cc(OC)ccc5c4)CC3)ccc2c1	1.35 µM (inactive)	2.21 µM (inactive)	1.9 µM (inactive)
Cc1ccc(-c2cnc(NC3OC(COC(=O)c4ccccc4)C(OC(=O)c4ccccc4)C(OC(=O)c4ccccc4)C3OC(=O)c3ccccc3)s2)cc1 (stereo not given)	> 100 µM (inactive)	> 100 µM (inactive)	> 100 µM (inactive)
NC(CC(O)(c1ccccc1)c1ccccc1)c1ccccc1S (stereo not given)	15.2 µM (inactive)	16.6 µM (inactive)	17.1 µM (inactive)
CN1c2ccc(O)c(O)c2-c2cc(O)cc3c2C1CCC3 (stereo not given)	14.2 µM (inactive)	18 µM (inactive)	23.7 µM (inactive)
C=CCOC1OC(CO[Si](C)(C)C(C)(C)C)C(OCc2ccccc2)C(OCc2ccccc2)C1OCc1ccccc1 (stereo not given)	54.3 µM (inactive)	36.6 µM (inactive)	–
O=C1c2ccccc2C(=O)c2sc(Nc3ccccc3C(F)(F)F)nc21	16.4 µM (inactive)	–	0.264 µM (active)
Cc1cc(S(=O)(=O)Nc2n[nH]c(-c3ccc(Cl)cc3)n2)c(SSc2cc(Cl)c(C)cc2S(=O)(=O)Nc2n[nH]c(-c3ccc(Cl)cc3)n2)cc1Cl	24.6 µM (inactive)	47.1 µM (inactive)	31.3 µM (inactive)
O=[As](O)(O)c1ccc(/N=N/c2ccc([As](=O)(O)O)cc2)cc1	–	> 100 µM (inactive)	> 100 µM (inactive)
C=C1C(=O)O[C@@H]2O[C@@]3(C)CC[C@H]4[C@H](C)CC[C@@H]1[C@@]24O3 [DEOXYARTEMISITENE]	5.52 µM (inactive)	–	25.9 µM (inactive)
